In ChEMBL document CHEMBL1126577, “Studies of the synthesis, immunology, and cytotoxicity of a cyclic octapeptide corresponding to TNF-alpha-(59-66)” (1993) one finds IL-1 production and Cytotoxicity index data, which are given here for 3 compounds.

For test [1], the species on record is Homo sapiens. Kind of test: Tested for induction of interleukin-1 from human peripheral blood mononuclear cell (PBMC) of 2x10 e6 cells at 1 ug/mL. It is filed as functional.
The species entered for test [2] is Homo sapiens. Briefly: Tested for induction of interleukin-1 production from human peripheral blood mononuclear cell (PBMC) of 2x10 e6 cells at 1 ug/mL. Type of test: functional.
Test [3] is filed under the species Homo sapiens. Briefly: Tested for induction of interleukin-1 production from human monocyte of 1x 10 e5 cells at 10 ug/mL. Type of test: functional.
Test [4] has as its system HEp-2. Briefly: Tested for cytotoxicity index against HEP-2 cell line by MTT method at 1.0 ug/mL concentration. Type of test: functional, Homo sapiens.
Test [5] concerns HEp-2. Kind of test: Tested for cytotoxicity index against HEP-2 cell line by MTT method at 0.1 ug/mL concentration. Type of test: functional, Homo sapiens. In general terms: Formazan colour is commonly taken as a measure of viable cells.
Test [6] concerns HeLa. Kind of test: Tested for cytotoxicity index against HeLa cell line by MTT method at 1.0 ug/mL concentration. It is filed as functional, Homo sapiens.
For test [7], the system named is HeLa. Briefly: Tested for cytotoxicity index against HeLa cell line by MTT method at 0.1 ug/mL concentration. Type of test: functional, Homo sapiens.

Bridge positions count the residues as written; N and C are the ends. Peptide text beside a SMILES is read from it.

H-KGDRLS-OH [TNF-ALPHA] came in with an IL-1 production in the test filed under Homo sapiens [1] of 741 pg/mL.
For `CC(C)C[C@@H]1NC(=O)[C@H](CCC(N)=O)NC(=O)[C@@H](N)CC(=O)NCCCC[C@@H](C(=O)NCC(=O)O)NC(=O)[C@H](CO)NC1=O` (H-DQLSKG-OH; lactam 1-5), the IL-1 production in the test filed under Homo sapiens [2] stood at 579 pg/mL; in the test filed under Homo sapiens [3], 1047 pg/mL.
With `COc1cccc2c1C(=O)c1c(O)c3c(c(O)c1C2=O)C[C@@](O)(C(=O)CO)C[C@@H]3O[C@H]1C[C@H](N)[C@H](O)[C@H](C)O1` [DOXORUBICIN], the Cytotoxicity index was 75.5 with HEp-2 [4], 39 with HEp-2 [5], 96.6 in the test with HeLa [6] and 50.6 in the test on HeLa [7].
